Earlier results, collected in patent publication US10703773B2, “Glycosyl hesperetin and process for producing the same and uses thereof” (Hayashibara Co. Ltd., priority 2014, dated 2020).

Settings: in water at ambient temperature

## COc1ccc([C@@H]2CC(=O)c3c(O)cc(O[C@@H]4O[C@H](CO[C@@H]5O[C@@H](C)[C@H](O)[C@@H](O)[C@H]5O)[C@@H](O)[C@H](O)[C@H]4O)cc3O2)cc1O [hesperidin]
  Water solubility: about 0.002 w/v %
